Reference: publication PMC9851200, “Multiparameter phenotypic screening for endogenous TFEB and TFE3 translocation identifies novel chemical series modulating lysosome function” (Autophagy, 2022)

Assays:
Format in all cases: binding
[1] = molecular target: kinases (KINOMEscan panel) (Homo sapiens, UniProt Q16513); conditions: kinase PKN2; NEW KINOMEscan
[2] = molecular target: kinases (KINOMEscan panel) (Homo sapiens, UniProt O75914); conditions: NEW KINOMEscan
[3] = molecular target: kinases (KINOMEscan panel) (Homo sapiens, UniProt P00533, L858R); conditions: kinase EGFR(L858R); NEW KINOMEscan
[4] = molecular target: kinases (KINOMEscan panel) (Homo sapiens, UniProt Q9Y6R4); conditions: MAP3K4; NEW KINOMEscan
[5] = molecular target: kinases (KINOMEscan panel) (Homo sapiens, UniProt Q14004)
[6] = molecular target: kinases (KINOMEscan panel) (Homo sapiens, UniProt P49336); conditions: CDK8; NEW KINOMEscan
[7] = molecular target: kinases (KINOMEscan panel) (Homo sapiens, UniProt P16234); conditions: PDGFRA; NEW KINOMEscan
[8] = molecular target: T1, kinases (KINOMEscan panel) (Homo sapiens, UniProt Q9NRM7); conditions: NEW KINOMEscan
T1 sequence (Q9NRM7 1-1088): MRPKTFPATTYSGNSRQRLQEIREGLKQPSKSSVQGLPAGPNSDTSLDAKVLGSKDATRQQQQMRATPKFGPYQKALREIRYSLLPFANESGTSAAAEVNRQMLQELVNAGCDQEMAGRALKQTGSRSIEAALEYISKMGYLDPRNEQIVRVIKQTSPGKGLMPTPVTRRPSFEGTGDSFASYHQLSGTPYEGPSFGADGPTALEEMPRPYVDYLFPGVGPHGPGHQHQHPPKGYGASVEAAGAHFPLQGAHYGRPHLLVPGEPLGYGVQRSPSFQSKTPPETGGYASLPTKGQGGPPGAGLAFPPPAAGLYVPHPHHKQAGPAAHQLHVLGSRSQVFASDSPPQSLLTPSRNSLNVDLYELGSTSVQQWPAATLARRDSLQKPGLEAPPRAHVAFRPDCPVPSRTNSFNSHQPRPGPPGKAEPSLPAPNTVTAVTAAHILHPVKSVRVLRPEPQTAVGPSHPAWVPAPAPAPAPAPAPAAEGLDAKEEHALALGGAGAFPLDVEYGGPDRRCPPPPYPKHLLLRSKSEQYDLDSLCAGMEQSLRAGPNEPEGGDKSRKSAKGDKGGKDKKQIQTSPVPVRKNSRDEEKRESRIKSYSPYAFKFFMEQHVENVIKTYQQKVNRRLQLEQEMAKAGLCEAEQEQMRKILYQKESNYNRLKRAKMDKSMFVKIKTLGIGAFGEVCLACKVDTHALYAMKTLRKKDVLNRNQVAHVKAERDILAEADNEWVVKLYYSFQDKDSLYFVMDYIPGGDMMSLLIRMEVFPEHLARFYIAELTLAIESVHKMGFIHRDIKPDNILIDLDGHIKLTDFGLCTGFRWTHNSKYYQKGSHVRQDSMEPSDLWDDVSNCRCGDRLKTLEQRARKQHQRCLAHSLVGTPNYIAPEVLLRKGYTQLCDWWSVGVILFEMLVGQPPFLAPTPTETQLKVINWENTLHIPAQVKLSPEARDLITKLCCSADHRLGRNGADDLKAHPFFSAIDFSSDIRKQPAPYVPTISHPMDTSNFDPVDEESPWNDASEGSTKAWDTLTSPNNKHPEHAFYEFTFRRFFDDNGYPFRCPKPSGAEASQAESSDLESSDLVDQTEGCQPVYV

[9] = molecular target: T2, kinases (KINOMEscan panel) (Homo sapiens, UniProt O14920)
T2 sequence (O14920 1-756): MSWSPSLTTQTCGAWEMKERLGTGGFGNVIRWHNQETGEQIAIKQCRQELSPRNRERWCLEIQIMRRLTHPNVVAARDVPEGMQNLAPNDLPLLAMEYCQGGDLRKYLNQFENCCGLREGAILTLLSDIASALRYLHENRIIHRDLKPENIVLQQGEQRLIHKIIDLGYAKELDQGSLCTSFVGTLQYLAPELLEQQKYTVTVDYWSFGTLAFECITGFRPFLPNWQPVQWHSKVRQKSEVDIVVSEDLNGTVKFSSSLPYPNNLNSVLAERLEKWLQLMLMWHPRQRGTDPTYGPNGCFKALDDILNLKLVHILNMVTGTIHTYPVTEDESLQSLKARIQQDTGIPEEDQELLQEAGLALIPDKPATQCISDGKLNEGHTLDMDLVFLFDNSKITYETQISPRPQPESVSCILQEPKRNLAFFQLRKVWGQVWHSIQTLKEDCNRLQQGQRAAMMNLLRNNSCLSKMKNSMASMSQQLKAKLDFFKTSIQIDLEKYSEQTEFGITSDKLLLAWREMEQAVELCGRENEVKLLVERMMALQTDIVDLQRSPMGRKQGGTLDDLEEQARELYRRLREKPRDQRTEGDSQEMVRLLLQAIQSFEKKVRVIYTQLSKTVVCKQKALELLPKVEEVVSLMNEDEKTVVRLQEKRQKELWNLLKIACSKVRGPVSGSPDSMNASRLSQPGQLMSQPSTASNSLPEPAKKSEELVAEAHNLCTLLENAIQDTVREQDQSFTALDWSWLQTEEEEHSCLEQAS

[10] = molecular target: kinases (KINOMEscan panel) (Homo sapiens, UniProt P42336, E542K); conditions: NEW KINOMEscan
Sequence of kinases (KINOMEscan panel) (Homo sapiens, UniProt P42336, E542K) (P42336 whole entry E542K): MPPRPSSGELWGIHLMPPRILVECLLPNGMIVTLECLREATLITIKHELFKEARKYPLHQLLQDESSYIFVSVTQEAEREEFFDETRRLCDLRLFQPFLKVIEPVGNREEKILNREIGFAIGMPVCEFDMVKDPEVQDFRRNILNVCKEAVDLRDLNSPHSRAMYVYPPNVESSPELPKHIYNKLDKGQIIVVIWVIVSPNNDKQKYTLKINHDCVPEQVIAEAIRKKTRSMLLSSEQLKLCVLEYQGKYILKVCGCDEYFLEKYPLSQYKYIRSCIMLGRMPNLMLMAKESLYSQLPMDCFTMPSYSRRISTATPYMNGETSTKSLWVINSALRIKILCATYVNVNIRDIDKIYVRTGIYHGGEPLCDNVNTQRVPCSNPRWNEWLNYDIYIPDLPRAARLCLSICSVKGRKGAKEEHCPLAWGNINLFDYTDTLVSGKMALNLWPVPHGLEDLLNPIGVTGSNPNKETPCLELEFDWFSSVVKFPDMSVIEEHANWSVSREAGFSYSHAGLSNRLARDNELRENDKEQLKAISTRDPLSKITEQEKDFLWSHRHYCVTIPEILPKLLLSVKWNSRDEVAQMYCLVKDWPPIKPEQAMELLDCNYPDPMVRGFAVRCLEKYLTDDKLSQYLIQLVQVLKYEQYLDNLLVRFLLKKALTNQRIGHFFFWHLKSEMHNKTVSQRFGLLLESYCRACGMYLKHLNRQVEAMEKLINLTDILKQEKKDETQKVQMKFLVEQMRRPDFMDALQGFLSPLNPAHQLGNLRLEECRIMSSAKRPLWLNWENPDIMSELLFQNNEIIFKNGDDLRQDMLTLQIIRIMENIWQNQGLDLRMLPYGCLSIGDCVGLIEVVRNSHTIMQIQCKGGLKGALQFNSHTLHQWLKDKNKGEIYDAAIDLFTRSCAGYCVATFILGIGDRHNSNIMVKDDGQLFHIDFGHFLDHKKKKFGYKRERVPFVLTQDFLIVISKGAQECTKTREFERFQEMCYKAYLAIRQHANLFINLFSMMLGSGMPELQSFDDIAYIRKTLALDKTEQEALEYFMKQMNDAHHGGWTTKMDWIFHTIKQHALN

Sequence of kinases (KINOMEscan panel) (Homo sapiens, UniProt P00533, L858R) (P00533 25-1210 L858R): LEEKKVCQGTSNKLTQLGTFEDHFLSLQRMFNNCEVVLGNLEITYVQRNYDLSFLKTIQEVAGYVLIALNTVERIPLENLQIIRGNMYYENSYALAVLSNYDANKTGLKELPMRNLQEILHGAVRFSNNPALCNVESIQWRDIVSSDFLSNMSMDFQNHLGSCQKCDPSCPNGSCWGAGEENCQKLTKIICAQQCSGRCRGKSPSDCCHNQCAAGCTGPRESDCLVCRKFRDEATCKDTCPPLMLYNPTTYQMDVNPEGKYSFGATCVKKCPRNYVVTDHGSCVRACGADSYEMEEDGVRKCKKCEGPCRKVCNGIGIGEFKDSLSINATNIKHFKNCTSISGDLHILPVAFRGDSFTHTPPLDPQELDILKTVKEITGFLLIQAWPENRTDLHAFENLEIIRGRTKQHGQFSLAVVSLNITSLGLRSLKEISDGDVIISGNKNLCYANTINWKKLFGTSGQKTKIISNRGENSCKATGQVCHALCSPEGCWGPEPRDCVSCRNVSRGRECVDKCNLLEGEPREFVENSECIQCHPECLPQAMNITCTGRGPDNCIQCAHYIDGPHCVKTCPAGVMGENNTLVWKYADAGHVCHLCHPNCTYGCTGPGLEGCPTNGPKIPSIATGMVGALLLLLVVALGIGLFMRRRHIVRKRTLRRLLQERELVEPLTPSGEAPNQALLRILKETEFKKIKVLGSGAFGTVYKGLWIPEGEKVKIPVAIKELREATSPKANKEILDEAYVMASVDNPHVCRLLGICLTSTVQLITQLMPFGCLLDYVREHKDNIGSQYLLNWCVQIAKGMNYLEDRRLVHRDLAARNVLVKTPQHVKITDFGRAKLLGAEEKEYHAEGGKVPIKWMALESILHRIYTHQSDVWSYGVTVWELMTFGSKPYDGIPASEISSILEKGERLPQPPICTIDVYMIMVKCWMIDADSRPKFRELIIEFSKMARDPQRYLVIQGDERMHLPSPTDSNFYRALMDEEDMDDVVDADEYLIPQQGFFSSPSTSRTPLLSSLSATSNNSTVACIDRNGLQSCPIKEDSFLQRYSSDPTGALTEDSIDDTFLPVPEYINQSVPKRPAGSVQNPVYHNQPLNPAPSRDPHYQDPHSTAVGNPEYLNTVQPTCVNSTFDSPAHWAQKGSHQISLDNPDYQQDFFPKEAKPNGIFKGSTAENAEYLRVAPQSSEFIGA
Sequence of kinases (KINOMEscan panel) (Homo sapiens, UniProt Q14004) (Q14004 whole entry): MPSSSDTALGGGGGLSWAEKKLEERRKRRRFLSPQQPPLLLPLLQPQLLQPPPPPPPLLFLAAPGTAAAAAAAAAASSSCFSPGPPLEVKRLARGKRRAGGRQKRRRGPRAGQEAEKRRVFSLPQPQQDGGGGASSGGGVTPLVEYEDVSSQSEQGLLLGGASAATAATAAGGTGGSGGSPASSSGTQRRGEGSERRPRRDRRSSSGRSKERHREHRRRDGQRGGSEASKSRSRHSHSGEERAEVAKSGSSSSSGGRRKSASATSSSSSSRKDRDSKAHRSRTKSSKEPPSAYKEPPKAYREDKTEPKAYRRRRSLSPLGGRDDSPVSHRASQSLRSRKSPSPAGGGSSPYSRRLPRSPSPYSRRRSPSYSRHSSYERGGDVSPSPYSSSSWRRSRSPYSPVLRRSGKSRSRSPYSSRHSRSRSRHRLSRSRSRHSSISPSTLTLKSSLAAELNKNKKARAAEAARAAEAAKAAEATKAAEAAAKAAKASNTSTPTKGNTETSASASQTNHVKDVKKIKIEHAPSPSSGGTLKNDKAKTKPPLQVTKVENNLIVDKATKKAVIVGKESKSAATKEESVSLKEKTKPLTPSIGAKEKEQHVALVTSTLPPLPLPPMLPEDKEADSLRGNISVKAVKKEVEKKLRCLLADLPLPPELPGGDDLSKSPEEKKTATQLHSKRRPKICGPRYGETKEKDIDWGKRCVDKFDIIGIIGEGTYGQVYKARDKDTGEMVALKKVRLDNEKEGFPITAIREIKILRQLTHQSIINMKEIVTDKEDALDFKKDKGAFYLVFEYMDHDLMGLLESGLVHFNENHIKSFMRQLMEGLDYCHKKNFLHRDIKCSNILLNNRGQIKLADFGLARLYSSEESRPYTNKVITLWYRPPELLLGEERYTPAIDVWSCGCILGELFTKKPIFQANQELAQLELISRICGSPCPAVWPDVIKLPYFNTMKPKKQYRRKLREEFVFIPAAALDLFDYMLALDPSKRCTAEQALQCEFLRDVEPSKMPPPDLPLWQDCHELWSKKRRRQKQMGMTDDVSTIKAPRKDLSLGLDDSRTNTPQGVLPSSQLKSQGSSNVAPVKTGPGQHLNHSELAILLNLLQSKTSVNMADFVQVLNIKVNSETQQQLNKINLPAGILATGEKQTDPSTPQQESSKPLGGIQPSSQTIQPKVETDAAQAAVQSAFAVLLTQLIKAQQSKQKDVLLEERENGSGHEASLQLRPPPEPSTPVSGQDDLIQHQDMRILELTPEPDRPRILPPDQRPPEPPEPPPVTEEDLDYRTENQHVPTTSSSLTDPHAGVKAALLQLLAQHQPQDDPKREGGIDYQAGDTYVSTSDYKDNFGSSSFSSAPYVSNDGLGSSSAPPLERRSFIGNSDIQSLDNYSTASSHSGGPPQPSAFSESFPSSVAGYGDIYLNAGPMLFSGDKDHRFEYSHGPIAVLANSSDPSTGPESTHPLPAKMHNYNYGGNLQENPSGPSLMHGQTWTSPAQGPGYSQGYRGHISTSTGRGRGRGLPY
Sequence of kinases (KINOMEscan panel) (Homo sapiens, UniProt Q16513) (Q16513 whole entry): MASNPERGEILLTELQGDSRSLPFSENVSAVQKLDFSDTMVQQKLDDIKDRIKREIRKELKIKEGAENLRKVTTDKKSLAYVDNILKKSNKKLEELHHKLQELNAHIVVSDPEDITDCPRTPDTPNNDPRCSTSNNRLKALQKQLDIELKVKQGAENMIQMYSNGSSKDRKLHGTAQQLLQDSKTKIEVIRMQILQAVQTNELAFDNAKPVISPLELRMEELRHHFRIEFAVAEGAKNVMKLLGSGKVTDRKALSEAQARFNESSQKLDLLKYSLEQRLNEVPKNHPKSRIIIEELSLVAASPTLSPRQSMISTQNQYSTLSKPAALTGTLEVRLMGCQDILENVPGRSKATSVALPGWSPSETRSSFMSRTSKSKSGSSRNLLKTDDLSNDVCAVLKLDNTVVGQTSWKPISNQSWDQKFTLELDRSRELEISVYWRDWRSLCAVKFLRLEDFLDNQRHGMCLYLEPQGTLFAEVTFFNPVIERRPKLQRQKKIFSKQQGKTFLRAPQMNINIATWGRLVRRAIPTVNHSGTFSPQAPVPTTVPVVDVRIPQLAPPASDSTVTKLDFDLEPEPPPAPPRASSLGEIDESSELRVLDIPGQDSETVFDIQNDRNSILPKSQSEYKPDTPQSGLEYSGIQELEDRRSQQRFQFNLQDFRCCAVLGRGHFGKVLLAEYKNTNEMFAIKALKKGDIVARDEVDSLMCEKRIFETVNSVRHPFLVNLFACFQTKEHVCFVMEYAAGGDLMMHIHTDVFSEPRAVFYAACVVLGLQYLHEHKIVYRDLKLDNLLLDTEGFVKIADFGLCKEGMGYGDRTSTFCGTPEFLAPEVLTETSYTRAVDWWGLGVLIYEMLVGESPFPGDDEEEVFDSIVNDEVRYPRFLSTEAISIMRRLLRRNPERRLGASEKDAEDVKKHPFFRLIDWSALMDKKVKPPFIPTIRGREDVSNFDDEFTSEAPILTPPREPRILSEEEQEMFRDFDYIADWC

| Structure (SMILES) | KINOMEscan PKN2 [1] | KINOMEscan PAK3 [2] | KINOMEscan EGFR(L858R) [3] | KINOMEscan MAP3K4 [4] | KINOMEscan CDK13 [5] | KINOMEscan CDK8 [6] | KINOMEscan PDGFRA [7] | KINOMEscan LATS2 [8] | KINOMEscan IKBKB/IKK-beta [9] | KINOMEscan PIK3CA(E542K) [10] |
| --- | --- | --- | --- | --- | --- | --- | --- | --- | --- | --- |
| Cc1cccc(-c2nc(Nc3ccc4nn(C)cc4c3)c3ccccc3n2)n1 [NK167] | 0 | 12 | 0 | 3 | 8 | 19 | 0 | 19 | 5 | 15 |
| Cc1cccc(-c2nc(N(C)c3ccc4ncsc4c3)c3ccccc3n2)n1 [NK-161] | 0 | 17 | 2 | 0 | 6 | 12 | 0 | 26 | 25 | 19 |
